Laboratory results taken from the NIST ThermoML archive (doi:10.1021/je800664z).

Legend:
[1] = refractive index (Na D-line) (dimensionless); details: 101.33 kPa, Liquid, Standard Abbe refractometry
[2] = for surface tension liquid-gas: Capillary rise; for mass density / viscosity: 101 kPa, Liquid
[3] = xn = mol fraction of the nth substance listed; details: x2 = 0; for surface tension liquid-gas: Capillary rise; for mass density / viscosity: 101 kPa, Liquid
[4] = refractive index (Na D-line) (dimensionless); xn = mol fraction of the nth substance listed; details: 101 kPa, Liquid, Standard Abbe refractometry, x2 = 0

CC(C)CC(C)(C)C [2,2,4-trimethylpentane]
Details | mass density, [2] [kg/m3] | refractive index, [1] | surface tension liquid-gas, [2] [mN/m] | viscosity, [2] [mPa·s]
288.15 K | 696.1 | 1.39408 | 19.18 | 0.537
298.15 K | 687.95 | 1.38916 | 18.33 | 0.481
308.15 K | 679.62 | 1.38497 | 17.35 | 0.434

CC(C)O [propan-2-ol]
Details | mass density, [2] [kg/m3] | refractive index, [1] | surface tension liquid-gas, [2] [mN/m] | viscosity, [2] [mPa·s]
288.15 K | 789.53 | 1.37933 | 21.75 | 2.849
298.15 K | 781.16 | 1.37515 | 20.9 | 2.043
308.15 K | 772.52 | 1.37061 | 20.17 | 1.541

CC(C)CC(C)(C)C [2,2,4-trimethylpentane] + C1COCO1
Details | mass density, [3] [kg/m3] | refractive index, [4] | surface tension liquid-gas, [3] [mN/m] | viscosity, [3] [mPa·s]
288.15 K | 696.1 | 1.39408 | 19.18 | 0.537
298.15 K | 687.95 | 1.38916 | 18.33 | 0.481
308.15 K | 679.62 | 1.38497 | 17.35 | 0.434

CC(C)O [propan-2-ol] + C1COCO1
Details | mass density, [3] [kg/m3] | refractive index, [4] | surface tension liquid-gas, [3] [mN/m] | viscosity, [3] [mPa·s]
288.15 K | 789.53 | 1.37933 | 21.75 | 2.849
298.15 K | 781.16 | 1.37515 | 20.9 | 2.043
308.15 K | 772.52 | 1.37061 | 20.17 | 1.541

C1COCO1 [1,3-dioxolane]
Details | mass density, [2] [kg/m3] | refractive index, [1] | surface tension liquid-gas, [2] [mN/m] | viscosity, [2] [mPa·s]
288.15 K | 1071.24 | 1.40252 | 34.37 | 0.667
298.15 K | 1059.29 | 1.39795 | 32.55 | 0.596
308.15 K | 1046.85 | 1.39322 | 30.67 | 0.535
